Values of other authors, collected in patent US9533949B2, “Processes for the preparation of 3-alkyl indoles” (APOTEX PHARMACHEM INC., priority 2012, dated 2017).

What was measured:
[1] = biological target: T1, insulin-like growth factor-I receptor (IGF-1R) (Homo sapiens, UniProt P08069); conditions: allosteric inhibitor
[2] = biological target: T1, insulin-like growth factor-I receptor (IGF-1R); conditions: allosteric inhibitor; remark: listed apart in the source
insulin receptor = insulin receptor (Homo sapiens, UniProt P06213)
Sequence of insulin receptor (P06213 28-1382, species assumed): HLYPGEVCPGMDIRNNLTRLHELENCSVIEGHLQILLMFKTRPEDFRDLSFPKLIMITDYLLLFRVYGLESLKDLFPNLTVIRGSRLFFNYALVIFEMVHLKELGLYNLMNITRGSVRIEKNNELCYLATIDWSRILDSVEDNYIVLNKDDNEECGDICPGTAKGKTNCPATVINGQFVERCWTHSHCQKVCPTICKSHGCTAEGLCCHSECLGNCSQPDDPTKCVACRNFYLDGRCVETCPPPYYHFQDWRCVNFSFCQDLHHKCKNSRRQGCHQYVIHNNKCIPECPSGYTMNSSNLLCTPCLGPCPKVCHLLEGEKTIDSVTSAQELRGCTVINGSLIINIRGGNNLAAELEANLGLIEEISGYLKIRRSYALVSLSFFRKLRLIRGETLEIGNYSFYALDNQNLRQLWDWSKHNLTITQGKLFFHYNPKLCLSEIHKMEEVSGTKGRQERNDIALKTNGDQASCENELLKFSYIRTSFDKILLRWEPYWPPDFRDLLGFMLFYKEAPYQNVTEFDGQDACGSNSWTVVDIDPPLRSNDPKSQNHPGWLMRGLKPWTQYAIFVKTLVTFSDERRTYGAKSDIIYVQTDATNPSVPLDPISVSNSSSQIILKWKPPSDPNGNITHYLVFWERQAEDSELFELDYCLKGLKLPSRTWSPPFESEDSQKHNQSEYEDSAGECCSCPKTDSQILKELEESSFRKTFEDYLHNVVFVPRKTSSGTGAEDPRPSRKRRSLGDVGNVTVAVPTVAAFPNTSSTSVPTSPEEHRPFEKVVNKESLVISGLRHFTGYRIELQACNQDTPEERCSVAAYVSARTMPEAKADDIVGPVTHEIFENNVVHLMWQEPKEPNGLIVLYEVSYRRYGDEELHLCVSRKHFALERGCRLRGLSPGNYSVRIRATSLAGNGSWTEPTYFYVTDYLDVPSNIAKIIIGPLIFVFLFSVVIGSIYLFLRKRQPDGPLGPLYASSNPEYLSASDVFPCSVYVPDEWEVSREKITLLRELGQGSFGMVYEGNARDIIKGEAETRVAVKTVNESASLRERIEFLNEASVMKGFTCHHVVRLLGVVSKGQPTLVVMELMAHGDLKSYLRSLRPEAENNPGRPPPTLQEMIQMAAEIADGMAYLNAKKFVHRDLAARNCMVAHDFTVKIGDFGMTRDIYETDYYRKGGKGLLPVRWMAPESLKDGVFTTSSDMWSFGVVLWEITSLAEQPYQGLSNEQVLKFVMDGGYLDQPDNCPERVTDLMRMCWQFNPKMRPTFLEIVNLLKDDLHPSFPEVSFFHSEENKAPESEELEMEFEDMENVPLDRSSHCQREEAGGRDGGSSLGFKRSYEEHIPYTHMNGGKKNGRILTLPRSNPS

D2 receptor = D2 receptor (Homo sapiens, UniProt P14416); conditions: selectivity to other GPCRs
Sequence of D2 receptor (P14416 whole entry): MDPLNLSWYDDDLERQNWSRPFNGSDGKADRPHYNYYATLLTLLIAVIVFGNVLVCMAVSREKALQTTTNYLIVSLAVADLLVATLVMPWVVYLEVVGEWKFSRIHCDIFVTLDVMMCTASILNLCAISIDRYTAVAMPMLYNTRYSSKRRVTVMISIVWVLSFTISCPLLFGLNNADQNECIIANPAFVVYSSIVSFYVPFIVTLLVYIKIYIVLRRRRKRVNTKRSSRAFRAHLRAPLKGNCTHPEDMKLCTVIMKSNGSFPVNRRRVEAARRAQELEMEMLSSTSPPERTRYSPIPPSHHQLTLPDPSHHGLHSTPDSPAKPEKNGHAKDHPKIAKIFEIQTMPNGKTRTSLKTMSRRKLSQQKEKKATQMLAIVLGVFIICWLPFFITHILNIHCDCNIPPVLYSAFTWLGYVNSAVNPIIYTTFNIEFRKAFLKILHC

T1 sequence (P08069 31-1367, species assumed): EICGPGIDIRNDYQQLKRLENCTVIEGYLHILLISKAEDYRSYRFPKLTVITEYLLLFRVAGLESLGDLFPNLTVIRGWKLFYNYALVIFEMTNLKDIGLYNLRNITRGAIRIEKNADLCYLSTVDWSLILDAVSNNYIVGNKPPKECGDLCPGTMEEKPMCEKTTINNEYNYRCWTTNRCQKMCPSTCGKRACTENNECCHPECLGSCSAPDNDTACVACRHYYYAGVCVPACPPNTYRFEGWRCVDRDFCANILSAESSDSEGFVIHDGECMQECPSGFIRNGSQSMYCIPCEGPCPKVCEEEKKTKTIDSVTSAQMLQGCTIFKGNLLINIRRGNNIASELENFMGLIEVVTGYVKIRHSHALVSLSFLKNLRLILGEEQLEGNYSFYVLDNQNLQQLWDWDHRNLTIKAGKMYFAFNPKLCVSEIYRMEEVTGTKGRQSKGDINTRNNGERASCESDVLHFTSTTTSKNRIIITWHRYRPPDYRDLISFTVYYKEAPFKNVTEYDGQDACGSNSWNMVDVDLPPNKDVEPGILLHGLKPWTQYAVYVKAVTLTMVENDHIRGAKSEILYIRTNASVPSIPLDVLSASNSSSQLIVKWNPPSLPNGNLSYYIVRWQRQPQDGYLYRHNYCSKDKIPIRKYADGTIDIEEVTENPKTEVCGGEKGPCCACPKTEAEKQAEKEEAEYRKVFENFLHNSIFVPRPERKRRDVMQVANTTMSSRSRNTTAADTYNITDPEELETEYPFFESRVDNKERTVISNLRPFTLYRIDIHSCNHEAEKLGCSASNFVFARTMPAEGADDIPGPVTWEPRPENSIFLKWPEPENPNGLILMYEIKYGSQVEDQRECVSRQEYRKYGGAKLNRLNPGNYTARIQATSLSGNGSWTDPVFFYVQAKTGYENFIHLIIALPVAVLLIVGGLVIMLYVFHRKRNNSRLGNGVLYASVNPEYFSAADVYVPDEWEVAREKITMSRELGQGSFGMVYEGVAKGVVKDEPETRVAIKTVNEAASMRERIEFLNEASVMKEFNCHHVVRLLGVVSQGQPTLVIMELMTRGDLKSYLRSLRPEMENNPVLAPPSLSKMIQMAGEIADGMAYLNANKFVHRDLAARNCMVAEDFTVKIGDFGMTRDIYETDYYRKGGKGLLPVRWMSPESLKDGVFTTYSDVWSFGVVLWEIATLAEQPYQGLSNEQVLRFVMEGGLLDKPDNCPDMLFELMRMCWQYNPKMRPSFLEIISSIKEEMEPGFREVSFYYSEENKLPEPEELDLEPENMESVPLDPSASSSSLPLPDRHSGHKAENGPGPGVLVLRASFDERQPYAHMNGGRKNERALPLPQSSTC

cellular IGF-1R activity [1]	biochemical IGF-1R activity [2]	no relevant interference with cellular insulin receptor signaling up to (insulin receptor) [µM]	IC50 (D2 receptor) [nM]	Compound
micromolar	nanomolar	> 30		N#Cc1ccc2[nH]cc(CCCCN3CCC(NC(=O)c4cccc5c(C#N)c[nH]c45)CC3)c2c1 [compound 10, 3-Cyano-1H-indole-7-carboxylic acid {1-[4-(5-cyano-1H-indol-3-yl)butyl]piperidin-4-yl}amide]
			666	N#Cc1ccc2[nH]cc(CCCCN3CCN(c4ccc5oc(C(N)=O)cc5c4)CC3)c2c1 [vilazodone, 5-{4-[4-(5-Cyano-3-indolyl)butyl]-1-piperazinyl}benzofuran-2-carboxamide]
